Assay results as given in US6864217B2, “Herbicidal compositions with substituted phenylsulfonylureas for controlling weeds in rice” (Hoechst Schering AgrEvo GmbH, priority 1998, dated 2005).
Counter-ions that a name gives are not always drawn.

Assays:
Sagittaria pygmaea = experiment: Table 13 greenhouse trial, treatment at the 5-6 leaf stage: weed control; format: in vivo; conditions: 20 days after application
Procedure: (§1) Seeds or rhizome pieces of mono- and dicotyledonous weed plants are placed into sandy loam soil in plastic pots, covered with soil and grown in a greenhouse under good growth conditions (temperature, atmospheric humidity, water supply). Weeds which are encountered in the cultivation of rice are cultivated in pots in which the water level is up to 2 cm over the soil surface. Three weeks after sowing, the test plants are treated at the three-leaf stage. The active compound combinations according to the invention, formulated as wettable powders or emulsion concentrates, and, in parallel experiments, the correspondingly formulated individual active compounds are sprayed onto the green parts of the plants at different dosages using an amount of water of 300 to 600 l/ha (converted), and, after about 3 to 4 weeks of the test plants in the greenhouse under optimum growth conditions (temperature, atmospheric humidity, water supply), the effect of the preparations is evaluated visually in comparison to untreated controls. In the case of rice or weeds which are encountered in the cultivation of rice, the active compounds are also added directly to the water for irrigation (application analogous to the so-called granules application) or sprayed onto plants and added to the water for irrigation. The experiments were designed with several, up to five, repetitions. The herbicidal compositions according to the invention also have good herbicidal post-emergence activity against a broad spectrum of economically important weed grasses and broad-leaved weeds.
Greenhouse trial: Treatment at the 5-6 leaf stage, evaluation 20 days after the application.

Oryza sativa [1] = experiment: Table 18 field trial, treatment at the 1-2 leaf stage: rice damage; format: in vivo; conditions: 14 days after application
Excerpt: (§2) Field trial: Treatment at the 1-2 leaf stage, evaluation 14 days after the application.

Oryza sativa [2] = experiment: Table 22 field trial, treatment: 1-2 leaf stage: rice damage; format: in vivo; conditions: 28 days after application
Excerpt: Field trial: Treatment: 1-2 leaf stage, evaluation 28 days after the application.

Cyperus serotinus [3] = experiment: Table 21 field trial, treatment at the 2 leaf stage: weed control; format: in vivo; conditions: 2.5 g of ai/ha, 28 days after application
Excerpt: Field trial: Treatment at the 2 leaf stage, evaluation 28 days after the application.

Echinochloa crusgalli [4] = experiment: Table 7 field trial, treatment at the 1-2 leaf stage: weed control; format: in vivo; conditions: 2 g of ai/ha, 28 days after application
Procedure: (§4) The examples mentioned below were carried out in the greenhouse, and in some instances, in field trials.

Echinochloa crusgalli [5] = experiment: Table 11 greenhouse trial, treatment at the 1-2 leaf stage: weed control; format: in vivo; conditions: 20 days after application
Procedure: as §1
(§3) Greenhouse trial: Treatment at the 1-2 leaf stage, evaluation 20 days after the application.

Oryza sativa [6] = experiment: Table 8 greenhouse trial, treatment at the 1-2 leaf stage: rice damage; format: in vivo; conditions: 22 days after application
Excerpt: as §1, with “Three weeks after sowing, the test plants are treated at the three-leaf stage.” left out

Cyperus serotinus [7] = experiment: Table 16 greenhouse trial, treatment at the 2-3 leaf stage: weed control; format: in vivo; conditions: 20 days after application
Procedure: as §1
Greenhouse trail: Treatment at the 2-3 leaf stage, evaluation 20 days after the application.

Oryza sativa [8] = experiment: Table 12 greenhouse trial, treatment at the 1-2 leaf stage: rice damage; format: in vivo; conditions: in vivo
Procedure: as §1, §3

Echinochloa crusgalli [9] = experiment: Table 18 field trial, treatment at the 1-2 leaf stage: weed control; format: in vivo; conditions: 14 days after application
Excerpt: as §2

Scirpus maritimus = experiment: Table 15 greenhouse trial, treatment at the 2-3 leaf stage: weed control; format: in vivo; conditions: 20 days after application
Procedure: as §1

ECHCO = experiment: Table 2 field trial, treatment at the 2-3 leaf stage weed grasses: weed control; format: in vivo, Echinochloa colona; conditions: 28 days after application
Procedure: as §4

SMILES: COC(=O)c1ccc(I)cc1S(=O)(=O)NC(=O)Nc1nc(C)nc(OC)n1 [A1*), Sodium salt of methyl 4-iodo-2-[3-(4-methoxy-6-methyl-1,3,5-triazin-2-yl)ureidosulfonyl]benzoate]
- SAGPY % control (Sagittaria pygmaea; 1.5 g of ai/ha): 30%
- SAGPY % control (Sagittaria pygmaea; 3 g of ai/ha): 50%
- ORYSW % damage (Oryza sativa [1]; 1 g of ai/ha): 7%
- ORYSW % damage (Oryza sativa [1]; 2 g of ai/ha): 12%
- ORYSW % damage (Oryza sativa [2]; 2.5 g of ai/ha): 6%
- ORYSW % damage (Oryza sativa [2]; 5 g of ai/ha): 12%
- CYPSE % control (Cyperus serotinus [3]): 25%
- ECHCG % control (Echinochloa crusgalli [4]): 10%
- ECHCG % control (Echinochloa crusgalli [5]; 1.5 g of ai/ha): 40%
- ECHCG % control (Echinochloa crusgalli [5]; 3 g of ai/ha): 60%
- ORYSW % damage (Oryza sativa [6]; 1.5 g of ai/ha): 10%
- ORYSW % damage (Oryza sativa [6]; 3 g of ai/ha): 10%
- CYPSE % control (Cyperus serotinus [7]; 1.25 g of ai/ha): 10%
- CYPSE % control (Cyperus serotinus [7]; 2.5 g of ai/ha): 30%
- CYPSE % control (Cyperus serotinus [7]; 5 g of ai/ha): 50%
- ORYSW % damage (Oryza sativa [8]): 10%
- ECHCG % control (Echinochloa crusgalli [9]; 1 g of ai/ha): 5%
- ECHCG % control (Echinochloa crusgalli [9]; 2 g of ai/ha): 25%
- SCIMA % control (Scirpus maritimus; 1.25 g of ai/ha): 35%
- SCIMA % control (Scirpus maritimus; 2.5 g of ai/ha): 40%
- SCIMA % control (Scirpus maritimus; 5 g of ai/ha): 45%
- ECHCO % control (ECHCO; 1.25 g of ai/ha): 0%
- ECHCO % control (ECHCO; 2.5 g of ai/ha): 35%
- ECHCO % control (ECHCO; 5 g of ai/ha): 37%
